Experiments:
[1] = system: AtT20 cells stably expressing empty vector (V); test: Cell proliferation assay (cell counting)
Description: EGFR WT cells were plated at a density of 2×10^4 per well in 12-well plates with growth medium. Cells were counted by hemocytometer at the indicated times.

[2] = system: non-tumor pituitary cell cultures
[3] = system: AtT20 cells stably expressing empty vector (V); test: Pomc promoter luciferase assay; conditions: highest gefitinib dose (10 μM); control cells
[4] = system: AtT20 cells stably expressing empty vector (V); test: BrdU incorporation by flow cytometry; conditions: 10 μM gefitinib, 24 hours
Description: Fixative was prepared by adding 30 mL of 50 mM glycin solution (pH 2.0) to 70 mL ethanol. Cells were fixed for overnight at −20° C. Cells were washed with PBS, and resuspended in incubation solution with anti-BrdU antibody (1:10) for 30 minutes at 37° C. with gentle agitation. […] Samples were washed with PBS and fluorescence was measured by flow cytometry.

Question: How did the “decrease of cell proliferation” value ([1]; gefitinib 0.1-10 μM, 24 hours, V) turn out when `COc1cc2ncnc(Nc3ccc(F)c(Cl)c3)c2cc1OCCCN1CCOCC1` [gefitinib] was run?
Answer: not V cell proliferation

Question: And the cell number ([1]; high dose (10 μM) gefitinib, V cells)?
Answer: not altered

Question: And the “pomc mRNA expression levels” value ([2]; non-tumor pituitary cell cultures (FIG. 6))?
Answer: unaltered

Question: And the normal pituitary function ([2]; normal pituitary (FIG. 5F))?
Answer: does not affect

Question: What about the “suppression of pomc promoter activity” value [3] of the same molecule?
Answer: ~23%

Question: What about the “reduction of BrdU incorporation” value [4] of the same molecule?
Answer: ~58%

From patent US9387211B2 (Cedars-Sinai Medical Center, priority 2010, dated 2016)
